Experimental data published in article PMC9213739, “Substrates and Loaded Iron Ions Relative Position Influence the Catalytic Characteristics of the Metalloenzymes Angelica archangelica Flavone Synthase I and Camellia sinensis Flavonol Synthase” (Frontiers in Pharmacology, 2022).

Key:
[1] = molecular target: T1, CaFLS (Camellia sinensis, UniProt A0A3G1RNB1); test: UPLC-MS product formation, Lineweaver-Burk; assay type: biochemical; settings: Tris-HCl pH 7.5, 23 °C
T1 construct: gene FLS; synthetic gene in pET-28a(+) (NcoI/XhoI), expressed in E. coli BL21(DE3); 331 residues; mutants carry fragments of AnFNS I
Description: (§1) UPLC-MS product formation, Lineweaver-Burk on CaFLS

[2] = molecular target: T1, CaFLS; test: UPLC-MS product formation, Lineweaver-Burk; assay type: biochemical; settings: tamarixetin formation (main product); Tris-HCl pH 7.5, 23 °C
Description: as §1

T1 sequence (A0A3G1RNB1 entry or part of it): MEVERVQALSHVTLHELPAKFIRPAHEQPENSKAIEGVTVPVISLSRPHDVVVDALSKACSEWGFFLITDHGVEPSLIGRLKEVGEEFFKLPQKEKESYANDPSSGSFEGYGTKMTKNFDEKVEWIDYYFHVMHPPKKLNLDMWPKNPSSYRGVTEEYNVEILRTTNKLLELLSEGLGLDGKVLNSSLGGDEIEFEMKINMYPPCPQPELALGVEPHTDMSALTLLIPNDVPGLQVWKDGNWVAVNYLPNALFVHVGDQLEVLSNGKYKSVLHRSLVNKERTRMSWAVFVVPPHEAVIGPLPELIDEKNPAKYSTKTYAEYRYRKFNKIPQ

Km ([1]; diosmetin formation (main product)): 65.4 µM
Km ([1]; tamarixetin formation (main product)): 66.4 µM
Km [2]: 68.5 µM
SMILES: COc1ccc([C@@H]2CC(=O)c3c(O)cc(O)cc3O2)cc1O [hesperetin]
